In patent publication US20030087906A1, “NITROGEN SUBSTITUTED BIARYL PURINE DERIVATIVES AS POTENT ANTIPROLIFERATIVE AGENTS” (priority 2001, published 2003):
Values joined by “and” are separate entries in the source; they are usually repeats but may differ in a detail not shown here. Identical values can stand only once.

Assays:
HeLa S-3 cells = experiment: Inhibition of cell growth of HeLa cells (SRB); type: cell-based, human; conditions: 2 days of treatment, replicate experiments
Procedure: Growth inhibition (GI50) values were measured with HeLa S-3 cells selected for growth on plastic. […] One day later, a control plate was fixed by addition of TCA to 5%. After five rinses with tap water the plate was air dried and stored at 4° C. Test compounds were added to the remaining plates at 10-fold dilutions between 0.01 and 100 μM. Two days later all plates were fixed as described above. Cells were then stained by the addition of 100 μl per well of 0.4% sulforhodamine B (SRB) in 1% acetic acid for 30 min at 4° C. Wells were then quickly rinsed 5×with acetic acid (1%) and allowed to air dry. The SRB was then solubilized by the addition of 100 μl per well of unbuffered 10 mM Tris base. Dye was quantified by measuring absorbance at 490 nm on a Molecular Devices kinetic microplate reader. Growth at each inhibitor concentration relative to the untreated control was calculated according to the following equation: percent growth=100×(T−To)/(C−To), where T was the average optical density (OD) of the test wells after 2 days of treatment, To was the average OD of the wells in the control plate on day 0 and C was the average OD of untreated wells. Plots of percent growth versus inhibitor concentration were used to determine the GI50.

CyclinE/cdk2 = CyclinE/cdk2 (Homo sapiens, UniProt P24941); experiment: CyclinE/cdk2 protein kinase assay (histone H1 phosphorylation); conditions: IC50 CyclinE/cdk2, complex immunopurified from HeLa cells; 15 μM ATP; replicate experiments
CyclinA/cdk2 = CyclinA/cdk2 (Homo sapiens, UniProt P24941); experiment: CyclinA/cdk2 protein kinase assay (histone H1 phosphorylation); conditions: IC50 CyclinA/cdk2, complex immunopurified from HeLa cells; 15 μM ATP; replicate experiments
[1] = test system: Tumor Cells in Hollow Fibers; experiment: NCI Hollow Fiber Assay (in vivo evaluation)

CC(C)n1cnc2c(NCc3ccc(-c4cccc(F)c4)nc3)nc(N[C@H]3CC[C@H](NC(=O)[C@H](C)NC(=O)OC(C)(C)C)CC3)nc21 [Compound 230]
GI50 (HeLa S-3 cells; Homo sapiens, HeLa S3, 48 h): 300 nM

CC(=O)N[C@H]1CC[C@H](Nc2nc(NCc3ccc(-c4ccc(Cl)s4)cc3)c3ncn(C(C)C)c3n2)CC1 [Compound 265]
GI50 (HeLa S-3 cells; Homo sapiens, HeLa S3, 48 h): 300 nM

CC(C)n1cnc2c(NCc3ccc(-c4ccccc4)cc3)nc(NC[C@H](C)N)nc21 [Compound 107]
IC50 (CyclinE/cdk2): 2000 nM | IC50 (CyclinA/cdk2): 1000 nM and 4000 nM

CN1CC[C@H](c2c(O)cc(O)c3c(=O)cc(-c4ccccc4Cl)oc23)[C@H](O)C1 [Flavopiridol, reference compound]
GI50 (HeLa S-3 cells; Homo sapiens, HeLa S3, 48 h): 180 nM

CC(C)n1cnc2c(NCc3ccc(-c4cccc(F)c4)nc3)nc(N[C@H]3CC[C@H](NC(=O)CNC(=O)OC(C)(C)C)CC3)nc21 [Compound 232]
GI50 (HeLa S-3 cells; Homo sapiens, HeLa S3, 48 h): 300 nM

CC(=O)N[C@H]1CC[C@H](Nc2nc(NCc3ccc(-c4cccc(C)c4)cc3)c3ncn(C(C)C)c3n2)CC1 [Compound 178]
GI50 (HeLa S-3 cells): 200 nM

Cc1ccc(-c2ccc(CNc3nc(N[C@H]4CC[C@H](N)CC4)nc4c3ncn4C(C)C)cc2)s1 [Compound 157]
GI50 (HeLa S-3 cells; Homo sapiens, HeLa S3, 48 h): 500 nM

CCCNCCNc1nc(NCc2ccc(-c3ccccc3)cc2)c2ncn(C(C)C)c2n1 [Compound 209]
GI50 (HeLa S-3 cells; Homo sapiens, HeLa S3, 48 h): 2000 nM

CCCN[C@H]1CC[C@H](Nc2nc(NCc3ccc(-c4cc(C)cs4)cc3)c3ncn(C(C)C)c3n2)CC1 [Compound 162]
GI50 (HeLa S-3 cells; Homo sapiens, HeLa S3, 48 h): 200 nM

CC(C)n1cnc2c(NCc3ccc(-c4ccccc4)cc3)nc(N[C@H]3CC[C@H](NC(=O)C4CC4)CC3)nc21 [Compound 261]
GI50 (HeLa S-3 cells): 300 nM

CC(=O)N[C@H]1CC[C@H](Nc2nc(NCc3ccc(-c4cccc(F)c4)nc3)c3ncn(C(C)C)c3n2)CC1 [Compound 188]
GI50 (HeLa S-3 cells): 200 nM and 70 nM

CC(C)n1cnc2c(NCc3ccc(-c4cccc(F)c4)nc3)nc(N[C@H]3CC[C@H](N)CC3)nc21 [Compound 187]
GI50 (HeLa S-3 cells): 30 nM | GI50 (HeLa S-3 cells; Homo sapiens, HeLa S3, 48 h): 50 nM

CC(=O)N[C@H]1CC[C@H](Nc2nc(NCc3ccc(-c4ccsc4)nc3)c3ncn(C(C)C)c3n2)CC1 [Compound 124]
IC50 (CyclinE/cdk2): 800 nM | Cell Types Killed [1]: OVCAR-3 | IP Score ([1]; IP fibers): 28 | SC score ([1]; SC fibers): 0 | IC50 (CyclinA/cdk2): 2000 nM

CC(C)n1cnc2c(NCc3ccc(I)cc3)nc(N[C@H]3CC[C@H](N)CC3)nc21 [Compound 11]
IC50 (CyclinE/cdk2): 70 nM | IC50 (CyclinA/cdk2): 200 nM

CC(=O)NCCCCNc1nc(NCc2ccc(-c3ccccc3)cc2)c2ncn(C(C)C)c2n1 [Compound 214]
GI50 (HeLa S-3 cells; Homo sapiens, HeLa S3, 48 h): 5000 nM

CC(=O)N[C@H]1CC[C@H](Nc2nc(NCc3ccc(-c4ccoc4)cc3)c3ncn(C(C)C)c3n2)CC1 [Compound 165]
GI50 (HeLa S-3 cells): 200 nM and 100 nM

CC(=O)N[C@H]1CC[C@H](Nc2nc(NCc3ccc(-c4cc(C)cs4)cc3)c3ncn(C(C)C)c3n2)CC1 [Compound 161]
GI50 (HeLa S-3 cells): 200 nM

CCCN[C@H]1CC[C@H](Nc2nc(NCCOc3ccc(-c4ccccc4)cc3)c3ncn(C(C)C)c3n2)CC1 [Compound 250]
GI50 (HeLa S-3 cells): 6000 nM

CCCN(CCC)CCNc1nc(NCc2ccc(-c3ccccc3)cc2)c2ncn(C(C)C)c2n1 [Compound 210]
GI50 (HeLa S-3 cells; Homo sapiens, HeLa S3, 48 h): 3000 nM

CC(=O)N[C@@H](C)CNc1nc(NCc2ccc(-c3ccccc3)cc2)c2ncn(C(C)C)c2n1 [Compound 108]
GI50 (HeLa S-3 cells; Homo sapiens, HeLa S3, 48 h): 3000 nM | IC50 (CyclinE/cdk2): > 10000 nM | IC50 (CyclinA/cdk2): > 10000 nM

CC(C)n1cnc2c(NCc3ccc(-c4ccco4)cc3)nc(N[C@H]3CC[C@H](N)CC3)nc21 [Compound 181]
GI50 (HeLa S-3 cells; Homo sapiens, HeLa S3, 48 h): 40 nM

CC[C@H](CO)Nc1nc(NCc2ccc(-c3cccc(N)c3)cc2)c2ncn(C(C)C)c2n1 [Compound 36]
GI50 (HeLa S-3 cells; Homo sapiens, HeLa S3, 48 h): 20000 nM

CC(Nc1nc(N[C@H]2CC[C@H](N)CC2)nc2c1ncn2C(C)C)c1ccc(-c2ccsc2)cc1 (stereo partly drawn) [Compound 257]
GI50 (HeLa S-3 cells; Homo sapiens, HeLa S3, 48 h): 3000 nM

CC(C)n1cnc2c(NCc3ccc(-c4cccs4)nc3)nc(N[C@H]3CC[C@H](N)CC3)nc21 [Compound 199]
GI50 (HeLa S-3 cells): 200 nM and 90 nM

CC(C)n1cnc2c(NCc3cccc(-c4ccsc4)c3)nc(N[C@H]3CC[C@H](NC(=O)OC(C)(C)C)CC3)nc21 [Compound 130]
GI50 (HeLa S-3 cells): > 10000 nM

CC(=O)N[C@H]1CC[C@H](Nc2nc(NCc3ccc(-c4ccc(F)cc4)cc3)c3ncn(C(C)C)c3n2)CC1 [Compound 102]
IC50 (CyclinE/cdk2): 4000 nM | IC50 (CyclinA/cdk2): > 10000 nM

Cc1csc(-c2ccc(CNc3nc(N[C@H]4CC[C@H](N)CC4)nc4c3ncn4C(C)C)cc2)c1 [Compound 160]
GI50 (HeLa S-3 cells; Homo sapiens, HeLa S3, 48 h): 200 nM

CCCN[C@H]1CC[C@H](Nc2nc(NCc3ccc(-c4cc(C)cc(C)c4)cc3)c3ncn(C(C)C)c3n2)CC1 [Compound 151]
GI50 (HeLa S-3 cells): 600 nM | GI50 (HeLa S-3 cells; Homo sapiens, HeLa S3, 48 h): 800 nM

CCCNCCCCNc1nc(NCc2ccc(-c3ccccc3)cc2)c2ncn(C(C)C)c2n1 [Compound 215]
GI50 (HeLa S-3 cells; Homo sapiens, HeLa S3, 48 h): 2000 nM

CC(=O)N[C@H]1CC[C@H](Nc2nc(NCc3ccc(-c4ccc(C)s4)cc3)c3ncn(C(C)C)c3n2)CC1 [Compound 158]
GI50 (HeLa S-3 cells): 600 nM

CC(=O)N[C@H]1CC[C@H](Nc2nc(NCc3ccc(-c4ccco4)nc3)c3ncn(C(C)C)c3n2)CC1 [Compound 206]
GI50 (HeLa S-3 cells): 200 nM

CC(=O)N[C@H]1CC[C@H](Nc2nc(NCc3ccc(-c4ccc(C)cc4)cc3)c3ncn(C(C)C)c3n2)CC1 [Compound 97]
GI50 (HeLa S-3 cells; Homo sapiens, HeLa S3, 48 h): 3000 nM | IC50 (CyclinE/cdk2): 3000 nM | IC50 (CyclinA/cdk2): > 10000 nM

CCCN[C@H]1CC[C@H](Nc2nc(NCc3ccc(-c4cc(OC)ccc4OC)cc3)c3ncn(C(C)C)c3n2)CC1 [Compound 155]
GI50 (HeLa S-3 cells): 800 nM | GI50 (HeLa S-3 cells; Homo sapiens, HeLa S3, 48 h): 500 nM

CC(C)n1cnc2c(NCc3ccc(-c4cccc(F)c4)nc3)nc(N[C@H]3CC[C@H](NC(=O)[C@H](C)N)CC3)nc21 [Compound 231]
GI50 (HeLa S-3 cells; Homo sapiens, HeLa S3, 48 h): 40 nM

CC(=O)N[C@H]1CC[C@H](Nc2nc(NCCc3ccc(-c4ccccc4)cc3)c3ncn(C(C)C)c3n2)CC1 [Compound 240]
GI50 (HeLa S-3 cells): 8000 nM

CC(C)n1cnc2c(NCc3cccc(-c4ccccc4)c3)nc(N[C@H]3CC[C@H](NC(=O)OC(C)(C)C)CC3)nc21 [Compound 133]
GI50 (HeLa S-3 cells): > 10000 nM

CC(=O)N[C@H]1CC[C@H](Nc2nc(NCc3ccc(-c4ccco4)cc3)c3ncn(C(C)C)c3n2)CC1 [Compound 182]
GI50 (HeLa S-3 cells; Homo sapiens, HeLa S3, 48 h): 300 nM

CC(C)n1cnc2c(NCc3ccc(-c4cccc(F)c4)nc3)nc(N[C@H]3CC[C@H](NC(=O)CN)CC3)nc21 [Compound 233]
GI50 (HeLa S-3 cells; Homo sapiens, HeLa S3, 48 h): 500 nM

CCN(C(C)=O)[C@H]1CC[C@H](Nc2nc(NCc3ccc(-c4ccccc4)cc3)c3ncn(C(C)C)c3n2)CC1 [Compound 267]
GI50 (HeLa S-3 cells): 800 nM and 600 nM

CC[C@H](CO)Nc1nc(NCc2ccc(-c3ccc(C(O)CO)cc3)cc2)c2ncn(C(C)C)c2n1 (stereo partly drawn) [Compound 34]
GI50 (HeLa S-3 cells; Homo sapiens, HeLa S3, 48 h): 7000 nM

CC(C)n1cnc2c(NCc3ccc(-c4cccc(Cl)c4)cc3)nc(N[C@H]3CC[C@H](N)CC3)nc21 [Compound 109]
IC50 (CyclinE/cdk2): 100 nM | IC50 (CyclinA/cdk2): 600 nM

CC(C)n1cnc2c(NCc3ccc(-c4ccccc4)cc3)nc(N[C@H]3CC[C@H](N4C(=O)CCC4=O)CC3)nc21 [Compound 262]
GI50 (HeLa S-3 cells): 300 nM and 200 nM and 500 nM

CC(C)n1cnc2c(NCc3ccc(-c4ccc(Cl)s4)cc3)nc(N[C@H]3CC[C@H](N)CC3)nc21 [Compound 264]
GI50 (HeLa S-3 cells): 500 nM | GI50 (HeLa S-3 cells; Homo sapiens, HeLa S3, 48 h): 300 nM

CC(C)n1cnc2c(NCCc3ccc(-c4ccccc4)cc3)nc(N[C@H]3CC[C@H](N)CC3)nc21 [Compound 239]
GI50 (HeLa S-3 cells; Homo sapiens, HeLa S3, 48 h): 6000 nM

COC(=O)N[C@H]1CC[C@H](Nc2nc(NCc3ccc(-c4ccccc4)cc3)c3ncn(C(C)C)c3n2)CC1 [Compound 259]
GI50 (HeLa S-3 cells): 300 nM and 700 nM

CC(C)n1cnc2c(NCc3ccc(-c4ccoc4)cc3)nc(N[C@H]3CC[C@H](N)CC3)nc21 [Compound 164]
GI50 (HeLa S-3 cells; Homo sapiens, HeLa S3, 48 h): 200 nM

CC(=O)N[C@H]1CC[C@H](Nc2nc(NCCOc3ccc(-c4ccccc4)cc3)c3ncn(C(C)C)c3n2)CC1 [Compound 249]
GI50 (HeLa S-3 cells; Homo sapiens, HeLa S3, 48 h): > 10000 nM

CCCN(CCC)[C@H]1CC[C@H](Nc2nc(NCc3ccc(-c4cc(C)cc(C)c4)cc3)c3ncn(C(C)C)c3n2)CC1 [Compound 152]
GI50 (HeLa S-3 cells): 700 nM and 300 nM

CC(C)n1cnc2c(NCCc3ccc(-c4ccsc4)cc3)nc(N[C@H]3CC[C@H](NC(=O)OC(C)(C)C)CC3)nc21 [Compound 242]
GI50 (HeLa S-3 cells): > 10000 nM

COc1cccc(-c2ccc(CNc3nc(N[C@H]4CC[C@H](NC(C)=O)CC4)nc4c3ncn4C(C)C)cc2)c1 [Compound 180]
GI50 (HeLa S-3 cells): 300 nM
